The text below walks through data of patent US6878548B2, “Composition for use in electroporation” (Pola Chemical Industries Inc., priority 2001, dated 2005).

Data set [1] can be described thus: percutaneous permeability test using a Franz cell after electroporation, dorsal skin. Type of data set: in vitro ADME, hairless rat. From the text: However, dorsal skin of a hairless rat was used as the skin sample. […] As the model labeled drugs, sodium dexamethasone phosphate (DEX.Na), ritodrine hydrochloride (RIT), dimemorfan phosphate (DIM), caffeine (CAF), azelastine hydrochloride (AZR), tipepidine hibenzate (TIP), benzoic acid (BA), phenytoin (PEN) and testosterone (TES) were used.

Data set [2] is described as follows: percutaneous permeability test using a Franz cell after electroporation, abdominal skin. On the procedure:
Calcein sodium salt was used as a model labeled drug at a concentration of 1 mM. The ingredients were stirred and solubilized to obtain the compositions for electroporation (solutions) of the present invention. The percutaneous absorption promotion actions of these compositions for electroporation were measured by percutaneous permeability test using a Franz cell. That is, a skin sample was collected from the abdomen of a hairless rat, and subcutaneous fat was removed from the sample. The skin sample was loaded in the Franz cell as a partition wall with its horny cell layer facing towards the donor side. The receiver side was filled with an isotonic phosphate-buffered saline (PBS). The donor side was filled with 3 mL of the aforementioned composition for electroporation of the present invention. The receiver side was stirred at 1200 rpm by using a star-head type stirrer. After the electroporation, 0.3 mL of the solution in the receiver side was serially collected in a time course and added with the same amount of isotonic phosphate-buffered saline (PBS) to examine the percutaneous permeability. […] The amount of calcein sodium salt was measured by a fluorometer. Further, as for the conditions of electroporation, ECM-830 produced by BTX was used, 10 pulses of 10 ms at 300 V was applied at intervals of 1 minute immediately after the drug administration, and then the power was turned off.
The same examination as in Example 1 was conducted by using various metal chlorides.
The same examination as in Example 1 was conducted by using trivalent metal ion chlorides. As for the electroporation conditions, 10 pulses of 10 ms at 300 V were applied at intervals of 1 second immediately after the drug administration. As the trivalent metal ion chlorides, iron chloride and aluminum chloride were used.
The same examination as in Example 1 was conducted by using FITC-dextran as a model labeled drug. As for the electroporation conditions, 10 pulses of 10 ms at 300 V were applied at intervals of 1 second immediately after the drug administration. As the FITC-dextran, FD4 (molecular weight: 4300), FD10 (molecular weight: 9600) and FD40 (molecular weight: 35600) were used.

Where a name gives a salt, the structure may show the parent alone. Read-outs that look alike come from different tables or passages of the source.

Consider `CN1CCCC(=C(c2cccs2)c2cccs2)C1.O=C(O)c1ccccc1C(=O)c1ccc(O)cc1` [tipepidine hibenzate], for which the “percutaneous absorption of the model labeled drug on addition of calcium ions” value in data set [1] (Example 11, dorsal skin, addition of CaCl2, 10 pulses of 10 ms at 300 V at intervals of 1 second, FIG. 9) was “significantly promoted percutaneous absorption”.

With iron chloride, in data set [2], the “percutaneous absorption (calcein), trivalent metal ion chlorides vs calcium ions” value was “neither of the trivalent metal ions significantly promoted percutaneous absorption”.

As to `[Ba+2].[Cl-].[Cl-]` [barium chloride], the “absorption of calcein during electroporation” value in data set [2] (Example 9, various divalent metal chlorides added, FIG. 7) was “promoted the absorption of calcein”.

Turning to `[Cl][Al]([Cl])[Cl]` [aluminum chloride], the “percutaneous absorption (calcein), trivalent metal ion chlorides vs calcium ions” value in data set [2] is reported as “neither of the trivalent metal ions significantly promoted percutaneous absorption”.

For the molecule `[Cl-].[K+]` [potassium chloride], the “percutaneous absorption promotion action (buprenorphine hydrochloride)” value in data set [2] (Example 8, sample of Example 4 with metal chloride changed, all 150 mM, buprenorphine hydrochloride 0.02% by weight, FIGS. 5 and 6) is listed as “promoted percutaneous absorption”.

`CN1CCCC(n2nc(Cc3ccc(Cl)cc3)c3ccccc3c2=O)CC1` (stereo not drawn) [azelastine hydrochloride]: the “percutaneous absorption of the model labeled drug on addition of calcium ions” value in data set [1] is reported as “significantly promoted percutaneous absorption”.
